Holding throughout (assay type): cell-based
The subject of assay [1] is T47D cells expressing mutant PI3Ka (H1047R). Briefly: In vitro cell proliferation (CellTiter-Glo, 72 hours), T47D cells. Conditions: inhibition of proliferation, read-out: Avg T-47D EC50. The procedure:
(§1) In Vitro Cell Proliferation: Determination of EC50 Values for Inhibition of Proliferation in T47D Cells Expressing Mutant PI3Ka (H1047R) Mutation and SKBR3 Cells Express WT PI3Ka.
(§2) T47D or SKBR3 cells were trypsinized, resuspended in culture media and seeded onto assay ready plates. T47D culture media consisted of RPMI, 10% FBS and Insulin (0.2 units/mL). SKBR3 culture media consisted of McCoys 5a and 10% FBS. Cells were seeded at a density of 1,500 cells/well and dispensed in 50 uL onto 384 well assay ready plates (Corning, 89089-790). Assay ready plates had previously been stamped with 10-point dilutions of compounds of interest, as well as controls. The Echo655 is used to stamp plates at 40 nL of compound or DMSO. Cells were grown for 72 hours at 37° Celsius and 5% CO2. After 72 hours, cells were equilibrated at room temperature for 15 minutes. 30 uL of CellTiter-Glo reagent is added to the plate, which is then shaken for 30 minutes at temperature at 300-500 rpm. Cells are then read on an Envision plate reader. The percentage of inhibition of proliferation was calculated using the following formula: % Inhibition=100×(LumD−LumSample)/(LumD−LumInh), where D is obtained from cells treated with 0.1% DMSO only; Inh is obtained from cells treated with 10 uM Alpelisib. The effective concentration achieving 50% inhibition of proliferation (EC50) is calculated by fitting the Curve using XWfit (v5.3.1.3), equation 201: Y=Bottom+(Top−Bottom)/(1+10^((Log EC50−X)*HillSlope)).

Assay [2] deals with SKBR3 cells express WT PI3Ka. Briefly: In vitro cell proliferation (CellTiter-Glo, 72 hours), SKBR3 cells. The procedure:
as §1, §2

Assay [3] concerns phosphorylation of AKT (pAKT) in T47D cells expressing mutant PI3Ka (H1047R). Briefly: In vitro cell pAKT (Ser473) HTRF, T47D cells. The procedure: (§3) In Vitro Cell pAKT: Determination of IC50 Values for Inhibition of Phosphorylation of AKT (pAKT) in T47D Cells Expressing Mutant PI3Ka (H1047R) Mutation and SKBR3 Cells Express WT PI3Ka.
(§4) T47D or SKBR3 cells were trypsinized, resuspended in culture media and seeded onto assay ready plates. T47D culture media consisted of RPMI, 10% FBS and Insulin (0.2 units/mL). SKBR3 culture media consisted of McCoy's 5a and 10% FBS. Cells were seeded at a density of 5000 cells/well and dispensed in 12.5 uL onto 384 well assay ready plates (Perkin Elmer, 6008238)). Assay ready plates had previously been stamped with 10-point dilutions of compounds of interest, as well as controls. The Echo655 is used to stamp plates at 12.5 nL of compound or DMSO. Cells were grown for 6 hour at 37° Celsius and 5% CO2. After 6 hour, 4 uL of Lysis buffer reagent was added to the plate, which was then centrifuged for 1 minute at 1000 rpm. Then the plate was incubated at room temperature for 30 minutes. After 30 minutes, 4 uL of antibody mix containing Eu Cryptate, d2 Cryptate, and detection buffer, was added to the plate. The plate was centrifuged for 1 minute at 1000 rpm and then incubated overnight at room temperature. The plate was read on an Envision plate reader using the HTRF protocol. The percentage of inhibition of AKT phosphorylation was calculated using the following formula: % Inhibition=100×(pAKTHC−pAKTSample)/(pAKTHC−pAKTLC)), where pAKTHC is obtained from cells treated with 0.1% DMSO only; pAKTLC is obtained from cells treated with 10 uM Alpelisib. The IC50 (concentration achieving 50% inhibition of pAKT) is calculated by fitting the Curve using XWfit (v5.3.1.3), equation 201: Y=Bottom+(Top−Bottom)/(1+10^((Log IC50−X)*HillSlope)).

Assay [4] concerns phosphorylation of AKT (pAKT) in SKBR3 cells express WT PI3Ka. Briefly: In vitro cell pAKT (Ser473) HTRF, SKBR3 cells. The procedure: as §3, §4
[5] abbreviates: read-out: Avg T-47D IC50, inhibition of pAKT, 6 hour.
[6] abbreviates: Homo sapiens, SK-BR-3, 72 h, inhibition of proliferation.
[7] abbreviates: inhibition of pAKT, 6 hour, read-out: Avg T-47D IC50.
Setting [8] is: Homo sapiens, SK-BR-3, 6 h, inhibition of pAKT.

SMILES strings stand for the structures. Where two headings read alike, the source gives them in different places.

For the compound `Cc1cc(C(C)Nc2ccccc2C(=O)O)c2nc(N3CC[Si](C)(C)CC3)n(C)c(=O)c2c1` (single isomer, unassigned) [Example 1, 2-((1-(2-(4,4-dimethyl-1,4-azasilinan-1-yl)-3,6-dimethyl-4-oxo-3,4-dihydroquinazolin-8-yl)ethyl)amino)benzoic acid], the EC50 was in the range of 0.5 to 2 µM in assay [1] and 2 to 15 µM in assay [2] (Homo sapiens, SK-BR-3, inhibition of proliferation). Moreover, the 50% inhibitory concentration (IC50) is 0.001 to 1 µM in assay [3] (setting [5]) and greater than 15 µM in assay [4] (Homo sapiens, SK-BR-3, inhibition of pAKT, 6 hour).
For `Cc1cc(C(C)Nc2ccccc2C(=O)O)c2nc(N3CC[Si](C)(C)CC3)n(C)c(=O)c2c1` (single isomer, unassigned) [Example 2, 2-((1-(2-(4,4-dimethyl-1,4-azasilinan-1-yl)-3,6-dimethyl-4-oxo-3,4-dihydroquinazolin-8-yl)ethyl)amino)benzoic acid], the EC50 in assay [1] and in assay [2] (inhibition of proliferation) was 2 to 15 µM throughout. In addition, the IC50 in assay [3] (setting [5]) is greater than 15 µM; in assay [4] (inhibition of pAKT, 6 hour), greater than 15 µM.
Turning to `Cc1cc(C(C)Nc2ccccc2C(=O)O)c2nc(N3CCCC(C)(C)C3)n(C)c(=O)c2c1` (single isomer, unassigned) [Example 3, 2-((1-(2-(3,3-dimethylpiperidin-1-yl)-3,6-dimethyl-4-oxo-3,4-dihydroquinazolin-8-yl)ethyl)amino)benzoic acid], the EC50 in assay [1] is 0.5 to 2 µM; in assay [2] (setting [6]), greater than 15 µM. Further, the IC50 in assay [3] (setting [7]) was 1 to 5 µM; in assay [4] (setting [8]), greater than 15 µM.
Take `Cc1cc(C(C)Nc2ccccc2C(=O)O)c2nc(N3CCCC(C)(C)C3)n(C)c(=O)c2c1` (single isomer, unassigned) [Example 4, 2-((1-(2-(3,3-dimethylpiperidin-1-yl)-3,6-dimethyl-4-oxo-3,4-dihydroquinazolin-8-yl)ethyl)amino)benzoic acid]: the values for the EC50 in assay [1] and in assay [2] (inhibition of proliferation) were 2 to 15 µM and greater than 15 µM, respectively. Further, the IC50 is greater than 15 µM in assay [3] (setting [7]) and greater than 15 µM in assay [4] (inhibition of pAKT, 6 hour).
`Cc1cc(C(C)Nc2ccccc2C(=O)O)c2nc(N3CC4(CCCCC4)C3)n(C)c(=O)c2c1` (single isomer, unassigned) [Example 5, 2-((1-(3,6-dimethyl-4-oxo-2-(2-azaspiro[3.5]nonan-2-yl)-3,4-dihydroquinazolin-8-yl)ethyl)amino)benzoic acid]: the EC50 in assay [1] is 2 to 15 µM; in assay [2] (inhibition of proliferation) it was greater than 15 µM. The half-maximal inhibitory concentration (IC50) in assay [3] (setting [7]) is 1 to 5 µM; in assay [4] (inhibition of pAKT, 6 hour), greater than 15 µM.
As for `Cc1cc(C(C)Nc2ccccc2C(=O)O)c2nc(N3CC4(CCCCC4)C3)n(C)c(=O)c2c1` (single isomer, unassigned) [Example 6, 2-((1-(3,6-dimethyl-4-oxo-2-(2-azaspiro[3.5]nonan-2-yl)-3,4-dihydroquinazolin-8-yl)ethyl)amino)benzoic acid], the 50% effective concentration (EC50) in assay [1] and in assay [2] (setting [6]) was greater than 15 µM in each case. Moreover, the IC50 in assay [3] (setting [7]) and in assay [4] (setting [8]) was greater than 15 µM in each case.
Regarding `COc1ccc2c(c1)CN(c1nc3c(C(C)Nc4ccccc4C(=O)O)cc(C)cc3c(=O)n1C)C2` (single isomer, unassigned) [Example 7, 2-((1-(2-(5-methoxyisoindolin-2-yl)-3,6-dimethyl-4-oxo-3,4-dihydroquinazolin-8-yl)ethyl)amino)benzoic acid], the EC50 in assay [1] is 0.5 to 2 µM; in assay [2] (setting [6]), greater than 15 µM. Moreover, the IC50 was 0.001 to 1 µM in assay [3] (setting [7]) and greater than 15 µM in assay [4] (setting [8]).
Consider `COc1ccc2c(c1)CN(c1nc3c(C(C)Nc4ccccc4C(=O)O)cc(C)cc3c(=O)n1C)C2` (single isomer, unassigned) [Example 8, 2-((1-(2-(5-methoxyisoindolin-2-yl)-3,6-dimethyl-4-oxo-3,4-dihydroquinazolin-8-yl)ethyl)amino)benzoic acid], for which the EC50 in assay [1] and in assay [2] (inhibition of proliferation) was greater than 15 µM each time. Moreover, the half-inhibitory concentration (IC50) is greater than 15 µM in assay [3] (setting [7]) and greater than 15 µM in assay [4] (inhibition of pAKT, 6 hour).
For `Cc1cc(C(C)Nc2ccccc2C(=O)O)c2nc(N3Cc4ccc(Cl)cc4C3)n(C)c(=O)c2c1` (single isomer, unassigned) [Example 9, 2-((1-(2-(5-chloroisoindolin-2-yl)-3,6-dimethyl-4-oxo-3,4-dihydroquinazolin-8-yl)ethyl)amino)benzoic acid], the EC50 in assay [1] is 0.5 to 2 µM; in assay [2] (inhibition of proliferation), greater than 15 µM. Further, the IC50 is 1 to 5 µM in assay [3] (setting [7]) and greater than 15 µM in assay [4] (setting [8]).
As for `Cc1cc(C(C)Nc2ccccc2C(=O)O)c2nc(N3Cc4ccc(Cl)cc4C3)n(C)c(=O)c2c1` (single isomer, unassigned) [Example 10, 2-((1-(2-(5-chloroisoindolin-2-yl)-3,6-dimethyl-4-oxo-3,4-dihydroquinazolin-8-yl)ethyl)amino)benzoic acid], the EC50 in assay [1] and in assay [2] (inhibition of proliferation) was 2 to 15 µM throughout. Besides, the IC50 in assay [3] (setting [7]) was greater than 15 µM; in assay [4] (inhibition of pAKT, 6 hour) it was greater than 15 µM.
On to `Cc1cc(C(C)Nc2ccccc2C(=O)O)c2nc(OCC(C)C)n(C)c(=O)c2c1` (single isomer, unassigned) [Example 11, 2-((1-(2-isobutoxy-3,6-dimethyl-4-oxo-3,4-dihydroquinazolin-8-yl)ethyl)amino)benzoic acid], for which the EC50 is 0.5 to 2 µM in assay [1] and greater than 15 µM in assay [2] (setting [6]). Moreover, the IC50 in assay [3] (setting [7]) was 1 to 5 µM; in assay [4] (setting [8]) it was greater than 15 µM.
For `Cc1cc(C(C)Nc2ccccc2C(=O)O)c2nc(OCC(C)C)n(C)c(=O)c2c1` (single isomer, unassigned) [Example 12, 2-((1-(2-isobutoxy-3,6-dimethyl-4-oxo-3,4-dihydroquinazolin-8-yl)ethyl)amino)benzoic acid], the 50% effective concentration (EC50) in assay [1] is 2 to 15 µM; in assay [2] (inhibition of proliferation) it was greater than 15 µM. Moreover, the IC50 in assay [3] (setting [7]) was greater than 15 µM; in assay [4] (inhibition of pAKT, 6 hour), greater than 15 µM.
On to `Cc1cc(C(C)Nc2ccc(C#N)cc2C(=O)O)c2nc(N3CCC(C)(C)CC3)n(C)c(=O)c2c1` (single isomer, unassigned) [Example 15, 5-cyano-2-((1-(2-(4,4-dimethylpiperidin-1-yl)-3,6-dimethyl-4-oxo-3,4-dihydroquinazolin-8-yl)ethyl)amino)benzoic acid], for which the EC50 in assay [1] (Homo sapiens, T47D, 72 h) lay in the range of 2 to 15 µM; in assay [2] (setting [6]), 2 to 15 µM.
For the compound `Cc1cc(C(C)Nc2ccc(C#N)cc2C(=O)O)c2nc(N3CCC(C)(C)CC3)n(C)c(=O)c2c1` (single isomer, unassigned) [Example 16, 5-cyano-2-((1-(2-(4,4-dimethylpiperidin-1-yl)-3,6-dimethyl-4-oxo-3,4-dihydroquinazolin-8-yl)ethyl)amino)benzoic acid], the EC50 in assay [1] and in assay [2] (inhibition of proliferation) was 2 to 15 µM each time.
As for `Cc1cc(C(C)Nc2ccccc2C(=O)O)c2nc(N3Cc4ccc(C(N)=O)cc4C3)n(C)c(=O)c2c1` (stereo not drawn) [Example 19, 2-((1-(2-(5-carbamoylisoindolin-2-yl)-3,6-dimethyl-4-oxo-3,4-dihydroquinazolin-8-yl)ethyl)amino)benzoic acid], the EC50 is 0.5 to 2 µM in assay [1] (Homo sapiens, T47D, 72 h) and greater than 15 µM in assay [2] (setting [6]).
